Laboratory results published in patent US11980600B2, “Diagnostic assay and treatment for preeclampsia” (MIRZYME THERAPEUTICS LIMITED, priority 2015, dated 2024).

Experiments:
[1] = tested on: Ad-sFlt-1 injected Hmox1+/− pregnant mice; assay: Rescue of preeclampsia phenotype in timed pregnant Hmox1+/- mice injected with Ad-sFlt-1; assay type: in vivo; conditions: for signs of preeclampsia overall: Ad-sFlt-1, agent given alone; for average fetal weight / fetal resorption rate / mean arterial blood pressure (MAP) / hypertension / proteinuria (24 h urinary albumin:creatinine ratio): Ad-sFlt-1, day 18 of gestation
Method: Pregnant mice studies were carried out ten to twelve-week-old Hmox1^+/− mice and Hmox1^+/+ mice or wild-type C57/B16 mice. The first day of pregnancy (E0.5) was defined by the presence of a vaginal plug the following morning. On E10.5 (second trimester) pregnant mice were injected with 1×10^9 PFU of Ad-sFlt-1 or Ad-CMV (control) adenovirus by injection into the tail vein. For RUPP study, on day 13 of gestation, time pregnant C57/Bl6 mice were anesthetized. An incision was made down the midline of the body and the abdominal aorta was isolated. The vessel was then restricted with 7.0 suture tied around a blunt needle (approximate diameter of 1 mm^2) placed on the aorta. The needle was then removed. Right ovarian artery was restricted with 7.0 suture. The incisions were closed and the mice were allowed to recover for five days. For the low-dose sFlt-1 experiment, 1×10^8 PFU of adenovirus expressing sFlt-1 was used. On E17.5 mice were individually placed in metabolic cages for 24 hours and arterial blood pressure was measured at E18.5 as described previously (Wang et al. 2013). In brief, mice were anesthetized by using a ketamine/xylazine cocktail, and the carotid artery was isolated and cannulated with a Millar 1-French Mikro-Tip pressure catheter connected to a pressure transducer (ADInstruments Ltd, Oxford, UK). After 30 minutes of blood pressure stabilization, arterial pressure was recorded and averaged over an additional 10-minute period. Following measurements, blood sampling was undertaken, the animals were euthanized, and their kidneys, livers, and placentas were collected. The live fetuses and placentas were counted and weighed. All experimentation was conducted in accordance with the United Kingdom Animals (Scientific Procedures) Act, 1986 with the use of procedures approved by the University Ethical Review Committee.
(§1) Urinary albumin was determined using Albuwell-M kits (Exocell Inc, Philadelphia, PA). Enzyme-linked immunosorbent assay kits for human and murine sFlt-1, KIM-1, and PIGF were obtained from R&D Systems and performed according to the manufacturer's specifications.

[2] = tested on: Ad-sFlt-1 injected Hmox1−/− mice; assay: Co-treatment rescue study of renal injury in non-pregnant Hmox1-/- mice injected with Ad-sFlt-1; assay type: in vivo; conditions: for proteinuria (24 h urinary albumin:creatinine ratio) / urinary KIM-1 levels: high sFlt-1; for renal glomerulosclerosis and mesangiolysis (glomerular histology): high sFlt-1, nor-NOHA daily i.p., L-arginine 25 g/L in drinking water
Method: Non-pregnant studies were carried out twelve-week-old Hmox1^−/− mice and Hmox1^+/+ mice. Animals were injected with 1×10^9 PFU of Ad-sFlt-1 or Ad-CMV (control) adenovirus by injection into the tail vein. Nine days after adenovirus administration, mice were individually placed in metabolic cages for 24 hours. Body weight, food and water intake, and urine volume were measured. Following urine measurements, blood sampling was undertaken on day 10, the animals were euthanized, and their kidneys and livers were collected for further analysis. Co-treatment rescue studies using arginase inhibitor and/or L-arginine supplementation were also undertaken in non-pregnant Hmox1^−/− mice and Hmox1^+/+ animals. Mice were injected intraperitoneally with nor-NOHA (Bachem, Bubendorf, Switzerland) daily. L-arginine (Sigma-Aldrich, St. Louis, MO) was given to the animals by supplementing the drinking water with 25 g/L one week before the Ad-sFlt-1 adenovirus injection and until the end of the study.
as §1
Human and murine placental tissues were prepared for immunohistochemistry as previously described. Immunohistochemistry was performed by using antibodies to Arginase-1, Ass1, Asl, and 3-nitrotyrosine. The following antibodies were used: (1) anti-arginase-1 antibody (1:50, Genetex); (2) anti-argininosuccinate synthase (1:100), Abcam); (3) anti-argininosuccinate lyase (1:100, Abcam) and (4) anti-3-Nitrotyrosine (1:100 dilution, Abcam). Sections from mouse kidneys or human placental biopsies were rehydrated, blocked with the use of normal serum, and incubated with primary antibody for 2 hours at room temperature. Visualization was performed by using a Vectastain ABC kit, with DAB. Slides were counterstained with hematoxylin. The staining was analysed by using a Nikon inverted microscope and Image Pro-Plus image analysis software.

SMILES	signs of preeclampsia overall [1]	average fetal weight [1]	fetal resorption rate [1]	mean arterial blood pressure (MAP) / hypertension [1]	proteinuria (24 h urinary albumin:creatinine ratio) [1]	proteinuria (24 h urinary albumin:creatinine ratio) [2]	urinary KIM-1 levels [2]	renal glomerulosclerosis and mesangiolysis (glomerular histology) [2]
N=C(NO)NCC[C@H](N)C(=O)O [nor-NOHA, N-w-hydroxy-L-nor-arginine]	failed to abolish all signs of preeclampsia	no significant effect	reduced	no significant effect	no significant improvements	improvements were absent	improvements were absent	improvements were absent
N=C(N)NCCC[C@H](N)C(=O)O [L-arginine]	failed to abolish all signs of preeclampsia	no significant improvement	no significant improvement	significantly reduced	no significant improvements	improvements were absent	improvements were absent	improvements were absent
